In PubChem BioAssay (NCI):
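Here, GI50 denotes the concentration required for 50% inhibition of growth. TGI denotes the concentration required for complete inhibition of growth.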

Experiments:
Experiment in all cases: NCI-60 cell line screen, 384-well format
A498 renal = test system: A498 renal
CCRF-CEM leukemia = test system: CCRF-CEM leukemia
EKVX NSCLC = test system: EKVX NSCLC
HL-60(TB) leukemia = test system: HL-60(TB) leukemia
HS 578T breast = test system: HS 578T breast
MALME-3M melanoma = test system: MALME-3M melanoma
MCF7 breast = test system: MCF7 breast
MDA-MB-231 breast = test system: MDA-MB-231 breast
NCI-H522 lung = test system: NCI-H522 lung
OVCAR-8 ovarian = test system: OVCAR-8 ovarian
SK-MEL-2 melanoma = test system: SK-MEL-2 melanoma
SNB-19 CNS = test system: SNB-19 CNS
UACC-62 melanoma = test system: UACC-62 melanoma

CC[C@H](NC(=O)[C@H](CS(=O)(=O)CC1CC1)N[C@@H](c1ccc(F)cc1)C(F)(F)F)C(=O)C(=O)NC1CC1
GI50 (A498 renal): > 100 µM | TGI (A498 renal): > 100 µM | GI50 (CCRF-CEM leukemia): 60.9 µM | TGI (CCRF-CEM leukemia): > 100 µM | GI50 (EKVX NSCLC): 98.7 µM | TGI (EKVX NSCLC): > 100 µM | GI50 (HL-60(TB) leukemia): 84.2 µM | TGI (HL-60(TB) leukemia): > 100 µM | GI50 (HS 578T breast): > 100 µM | TGI (HS 578T breast): > 100 µM | GI50 (MALME-3M melanoma): > 100 µM | TGI (MALME-3M melanoma): > 100 µM | GI50 (MCF7 breast): 97.5 µM | TGI (MCF7 breast): > 100 µM | GI50 (MDA-MB-231 breast): > 100 µM | TGI (MDA-MB-231 breast): > 100 µM | GI50 (NCI-H522 lung): > 100 µM | TGI (NCI-H522 lung): > 100 µM | GI50 (OVCAR-8 ovarian): > 100 µM | TGI (OVCAR-8 ovarian): > 100 µM | GI50 (SK-MEL-2 melanoma): > 100 µM | TGI (SK-MEL-2 melanoma): > 100 µM | GI50 (SNB-19 CNS): > 100 µM | TGI (SNB-19 CNS): > 100 µM | GI50 (UACC-62 melanoma): > 100 µM | TGI (UACC-62 melanoma): > 100 µM
